We go through three molecules from PMC10102062, “Effects of DPTQ, a novel positive allosteric modulator of the dopamine D1 receptor, on spontaneous eye blink rate and spatial working memory in the nonhuman primate” (Psychopharmacology, 2023).

Data set [1] addresses D2 receptor (Homo sapiens, UniProt P14416). On the set-up: method as in previously published data. The conditions noted are these: at 10 µM, functional and binding studies; ref previously published data; cited from earlier work.
Data set [2] has as its system pCREB and the AMPA receptor pGluR1. On the set-up: method as in Bruns et al. [2018]. The following applies: hD1 mouse; similar to SKF82958; ref Bruns et al. [2018]; cited from earlier work.
Data set [3] concerns rhesus monkeys. Also on record: method as in Bruns et al., [2018]. The conditions noted are these: smaller response than SKF82958; ref Bruns et al., [2018]; cited from earlier work.
The test system of data set [4] is rhesus monkeys. Put plainly: Spontaneous eye blink rate, cumulative dosing. The format is in vivo, rhesus monkey. The source says: Eleven 5–6-year-old, male rhesus monkeys (Chengdu Ping, An Animal Breeding and Research Base, Sichuan Province, China) with an average weight of 4.83 kg were included in the study. The animals were randomly divided into three groups, DPTQ higher cumulative dose group (n = 4); DPTQ lower cumulative dose group (n = 3); and vehicle (20% Captisol (CyDex Pharmaceuticals, Inc., KS) in NaPO4 buffer) group (n = 4). The D1 agonist SKF82958 was included as a positive control; the results for this compound (not shown here) were recently published together with data for a different D1PAM (DETQ, see Bruns et al. [2018]). The D1 selective antagonist SCH39166 hydrobromide (Cat No.: 2299, Batch No.: 3A/129719) was purchased from Tocris, MN, and was prepared in Millipore pure water with the injection volume 0.2 ml/kg. The D1 antagonist was dosed 15 min before vehicle or DPTQ (n = 4 animals per group).
Spontaneous eye blinking rate was measured during observational experiments conducted in a specially constructed monkey chair (Mason et al. [2019]). A U-shaped neck plate that helped to fixate the orientation of the head was used to facilitate observation of eye blink rate response. A compact video camera (Panasonic/wv-cp480/CH) on a tripod was positioned in front of the seated monkey. Two camera images were combined by video collector (Color QUAD system) and transferred to the EthoVision software (Noldus, Leesburg, VA) on the computer for on-line viewing and recording.
Two weeks before testing, monkeys were trained daily to sit in the monkey chair for two 2-h periods with food reward. During post-training test sessions conducted between 9:00 am and 4:30 pm every day, each monkey was studied for nine consecutive 15-min components. Each 15-min block consisted of a 10-min habituation period followed by a 5-min period during which eye blinking was counted. […] Observers blind to the treatment conditions later scored each 5-min videotaped session. An eye blink was defined as a visible, rapid opening and closing of the eyelid. Two observers independently confirmed the measurement with reliability > 90%.
The effects of different D1 ligands on spontaneous eye blink rate were studied by a cumulative dosing procedure (Jutikiewicz and Bergman 2004). Active compound or vehicle (Captisol 20% w/v NaPO4 buffer) was administered after obtaining two baseline eye blink recordings. The ligand was given in random order to different monkeys of each group as described above. To study dose response and time course, incremental doses of DPTQ were administrated at the end of 15-min components of each test session.
DPTQ (free base, see Hao et al. [2019]) was supplied by Eli Lilly Company. Captisol (Lot No.: NC-04A-05034) was prepared as follows: Captisol 20% w/v NaPO4 buffer 25 mM, pH 8. The injection volume for DPTQ was 0.5 ml/kg IM. DPTQ at 0.1 mg/kg, 0.5 mg/kg, and 1 mg/kg were dosed as clear solution, while the 5 mg/kg and 10 mg/kg doses were formulated as fine suspensions. The above vehicle solution was stored at 4℃ in a refrigerator and restored to room temperature before use. When preparing DPTQ fresh daily, a portion of the vehicle (20% Captisol) was added to the compound and stirred to wet, followed by addition of the remainder of the vehicle and mixing until the solution became homogeneous. The suspension was then sonicated on an ice bath for 40 min to reduce particle size. Animals were dosed while in the chair.
Results for each monkey were expressed as the rate of eye blinking (blinks per minute) averaged over each 5-min testing epoch. The effects of vehicle and D1 PAM on eye blinking were averaged for each group of monkeys and expressed as mean ± SE. The effects of DPTQ and vehicle were analyzed with two-way ANOVA (D1 PAM and time) followed by Bonferroni post hoc test (GraphPad Prism, San Diego CA).

Data set [5] relates to adult human volunteers. On the set-up: method as in Wilbraham et al. [2021]. The conditions noted are these: clinical studies; ref Wilbraham et al. [2021]; cited from earlier work.

Chain of D2 receptor (P14416 whole entry): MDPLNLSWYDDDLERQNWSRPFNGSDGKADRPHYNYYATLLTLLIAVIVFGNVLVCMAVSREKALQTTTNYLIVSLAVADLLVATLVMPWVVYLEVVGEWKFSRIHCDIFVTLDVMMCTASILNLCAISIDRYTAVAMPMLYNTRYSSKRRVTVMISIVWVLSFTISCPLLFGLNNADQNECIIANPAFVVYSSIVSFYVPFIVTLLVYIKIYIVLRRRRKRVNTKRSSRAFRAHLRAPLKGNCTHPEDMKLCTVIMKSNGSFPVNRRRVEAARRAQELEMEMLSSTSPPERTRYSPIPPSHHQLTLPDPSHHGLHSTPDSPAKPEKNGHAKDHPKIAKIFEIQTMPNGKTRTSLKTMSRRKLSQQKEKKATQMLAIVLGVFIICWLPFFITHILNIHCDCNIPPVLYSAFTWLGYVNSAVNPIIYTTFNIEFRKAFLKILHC

In the case of `C[C@H]1c2cccc(C(C)(C)O)c2C[C@H](CO)N1C(=O)Cc1c(Cl)cccc1Cl` [DETQ], the “Activity at the D2 receptor” value in data set [1] was “no activity”. The “Brain levels of pCREB and pGluR1” value in data set [2] was “enhances”. Also, in data set [3], the “Spontaneous eye blink rate” value was “enhanced spontaneous eye blink rate”.

`CN1CCc2cc(Cl)c(O)cc2[C@H]2c3ccccc3CC[C@@H]21` [SCH39166, reference compound]: in data set [4] (0.03 mg/kg IM alone), the “Duration of eye blink reduction/sedation” value is reported as “about 15 min”; the “Spontaneous eye blink rate, antagonist alone” value is listed as “brief reduction in eye blink rate”; the “Visual observation of sedation” value is on record as “slightly sedated”. Also, the “Effect on DPTQ-induced increase in spontaneous eye blink rate” value in data set [4] (SCH39166 pretreatment, high cumulative doses of DPTQ, n = 4/group) was “blocks”.

As for `C[C@H]1c2cccc(CCC(C)(C)O)c2C[C@H](CO)N1C(=O)Cc1c(Cl)cccc1Cl` [mevidalen, 2-(2,6-dichlorophenyl)-1-((1S,3R)-5-(3-hydroxy-3-methylbutyl)-3-(hydroxymethyl)-1-methyl-3,4-dihydroisoquinolin-2(1H)-yl)ethan-1-one], in data set [1], the “Activity at the D2 receptor” value is listed as “no activity”. In addition, the “Oral movement with tongue protrusion” value in data set [5] is recorded as “not reported”.
